# Patent US20240066133A1, “THERAPEUTIC AGENTS AND CONJUGATES THEREOF” (Beijing Xuanyi PharmaSciences Co., Ltd., priority 2020, published 2024)
# Like-named read-outs stand apart in the source and are kept apart here.
# How the values were obtained:
# [1] = target: T1, Human STING (hSTING-R232) (Homo sapiens, UniProt Q86WV6, H232R); experiment: Activation of human STING signaling in THP1-Dual KI-hSTING-R232 cells (IRF promoter, QUANTI-Luc); type: cell-based; details: THP1 cell line, 24 h, read-out: EC50 IRF3
# T1 construct: host or cells: THP1-Dual KI-hSTING-R232 cells
# Procedure: Activation of Human STING Signaling in THP1 Cell Line
# The cells were treated with 20 μl/well of compounds at 8 concentrations in duplicate in 96-well plate, and incubate for 24 h. To measure IRF promoter activity, 15 μl of cell culture supernatant was mixed with 45 μl QUANTI-Luc in an opaque 96-well plate and immediately measured using Luminometer; to measure NF-κB promoter activity, 15 μl of supernatant was mixed with 90 μl QUANTI-Blue, and incubated at 37° C. for 90 minutes, and read at OD650 nm. EC50 was calculated by nonlinear regression fit with 4-parameter responsive curve fitting using GraphPad Version 8 software (Table 1).
# [2] = target: T2, hSTING R232 (Homo sapiens, UniProt Q86WV6, H232R); experiment: IRF activation in 293T-Dual hSTING R232 cells (Quanti-Blue); type: cell-based; details: 24 hr, read-out: EC50 IRF3
# T2 construct: host or cells: 293T-Dual hSTING R232 cells
# Procedure: A test compound with a serial of 1:3 dilution was prepared in complete medium, and 20 μL of the compound was added to the corresponding well, and incubated with the cells at 37° C. incubator for 24 hr.
# To determine the effect on interferon regulatory factor (IRF) activation, 15 μL of cell culture supernatant was transferred into a fresh 96-half area-well plate, 90 μL of Quanti-Blue was added to each well and incubated at 37° C. for 90 min. OD at 650 nm was recorded. EC50 was calculated by nonlinear regression fit with 4-parameter responsive curve fitting using GraphPad Version 8 software (Table 2).
# [3] = test system: MC38 tumor cells; details: IT 5 ug/mouse every three days, three injections; for anti-tumor efficacy (tumor growth, FIG. 1): single agent, subcutaneous MC38
# Procedure: To Evaluate the in vivo efficacy of A5-I, A5-II, A6-I and A6-II, C57BL/6 mouse was subcutaneously inoculated in the right flank with MC38 tumor cells (1×10^6) in 40 ul of HBSS for tumor development. Treatment started when tumor size reached around 80-100 mm^3, on day 7 after tumor cell implantation. Compounds were administered by IT injection and repeated every three days with total three injections. […] Tumor volumes were measured twice to thrice weekly.
# [4] = test system: MC38 tumor cells; experiment: MC38 murine syngeneic model, Example 98 (Table 5); type: in vivo, C57BL/6 mouse; details: IT, Q3d × 3; doses per Table 5 (A5-I 3, A19 50 and 17, A33 17×2/8×1, A34 50, A38 51×1/17×2, A69 50, A71 50, A85 46 μg/mouse)
# Procedure: Example 98. Evaluation of Compound A5-I, A19, A33, A34, A38, A69, A71 and A85 in MC38 Murine Syngeneic Model
# Compounds (listed in Table 5), were administered by IT injection.
# T1 sequence (Q86WV6 whole entry H232R): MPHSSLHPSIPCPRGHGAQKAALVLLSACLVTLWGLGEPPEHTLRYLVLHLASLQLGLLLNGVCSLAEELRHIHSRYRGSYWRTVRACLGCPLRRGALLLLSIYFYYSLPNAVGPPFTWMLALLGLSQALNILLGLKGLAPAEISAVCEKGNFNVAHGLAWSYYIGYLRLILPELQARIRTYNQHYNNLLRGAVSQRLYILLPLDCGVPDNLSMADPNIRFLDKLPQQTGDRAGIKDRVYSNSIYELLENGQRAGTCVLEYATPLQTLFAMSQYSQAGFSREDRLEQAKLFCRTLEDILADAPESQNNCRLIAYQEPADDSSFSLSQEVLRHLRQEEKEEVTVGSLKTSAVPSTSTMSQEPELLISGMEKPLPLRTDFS
# T2 sequence (Q86WV6 whole entry H232R): as above
compound,measurement,setting,value
"BP1(=O)OC[C@H]2O[C@@H](n3cnc4c(N)ncnc43)[C@H](F)[C@@H]2O[P@@](=O)(S)OC[C@H]2O[C@@H](n3cnc4c(=O)[nH]c(N)nc43)[C@H](F)[C@@H]2O1 (single isomer, unassigned) [Compound A1]",EC50,[1]; Assay Results 1 (average of more than 2 runs),450 nM
same,EC50,[1]; Assay Results 2 (single run),564 nM
same,EC50,[2],59 nM
"B[P@]1(=O)OC[C@H]2O[C@@H](n3cnc4c(N)ncnc43)[C@H](F)[C@@H]2O[P@@](=O)(S)OC[C@H]2O[C@@H](n3cnc4c(N)ncnc43)[C@H](F)[C@@H]2O1 [Compound A5-I, ((2R,3R,3aR,5S,7aR,9R,10R,10aR,12S,14aR)-2,9-bis(6-amino-9H-purin-9-yl)-3,10-difluoro-12-mercapto-5,12-dioxidooctahydro-2H,7H-difuro [3,2-d:3′,2′-j][1,3,7,9]tetraoxa[2,8]diphosphacyclododecin-5-yl)trihydroborate]",tumor regression (FIG. 1),[3],complete regression for all treated mice
same,"anti-tumor efficacy (tumor growth, FIG. 1)",[3],significant anti-tumor efficacy
same,anti-tumor activity compared to vehicle-treated group (FIG. 5),[4],significantly improved anti-tumor activity
B[P@@]1(=O)OC[C@H]2O[C@@H](n3cnc4c(N)ncnc43)[C@H](F)[C@@H]2O[P@](=O)(S)OC[C@H]2O[C@@H](n3cnc4c(N)ncnc43)[C@H](F)[C@@H]2O1 [Compound A6-II],"anti-tumor efficacy (tumor growth, FIG. 1)",[3],significant anti-tumor efficacy
BP1(=O)OC[C@H]2O[C@@H](n3cnc4c(N)ncnc43)[C@H](F)[C@@H]2O[P@](=O)(S)OC[C@H]2O[C@@H](n3cnc4c(N)ncnc43)[C@H](F)[C@@H]2O1 (some centres unmarked) [Compound A6-I],"anti-tumor efficacy (tumor growth, FIG. 1)",[3],significant anti-tumor efficacy
